This is an account of results in patent US20090149458A1, “PYRROLO[3,2-d]PYRIMIDINE COMPOUNDS AND THEIR USE AS PI3 KINASE AND mTOR KINASE INHIBITORS” (Wyeth, priority 2007, published 2009).

A word on the IC50: it is the concentration at which inhibition is half-maximal.

One assay addresses T1, human TOR (Homo sapiens, UniProt P42345).
T1 construct: FLAG
Briefly: human TOR kinase assay with purified enzyme, DELFIA format.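 Also: 2 h kinase reaction at room temperature, phosphorylation of S6K at T389 detected with a europium-labelled antibody after plate capture, DMSO vehicle as control.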 It is filed as biochemical. Conditions: FLAG-TOR, 100 μM ATP, His6-S6K substrate.

The next assay concerns the target PI3 Kinase α (Homo sapiens, UniProt P42336). Briefly: PI3K fluorescence polarization assay (PI3 Kinase α).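 Also: enzyme reaction with inhibitor or DMSO control, 30–60 min at room temperature, stopped by EDTA, then TAMRA detector with GST-GRP fluorescence polarization read after 90–110 min.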 It counts as biochemical. Conditions: 20 uM PIP2, 25 uM ATP. Background: In fluorescence polarisation assays a small probe gives low polarisation when free and higher when bound to something large.
The target in the next assay is PI3 Kinase γ (Homo sapiens, UniProt P48736). As to the kind of experiment: PI3K fluorescence polarization assay (PI3 Kinase γ). It is filed as biochemical. Conditions: 20 uM PIP2, 25 uM ATP. The protocol:
Buffers: Reaction Buffer: 20 mM HEPES pH7.5, 2 mM MgCl2, 0.05% CHAPS, and 0.01% bME (added fresh); STOP/detection Buffer: 100 mM HEPES pH7.5, 4 mM EDTA, 0.05% CHAPS. STOCKS: ATP 20 mM in H2O; PIP2 (diC8, Echelon cat# P-4508) 1 mM in H2O MW=856.5; GST-murine GRP 1.5 mg/ml in 17% glycerol; Red detector probe-Echelon (TAMRA) 2.5 uM. Plate: Nunc 384 well black polypropylene fluor. Plate.
Assay: The assay is run by putting 9.5 ul of freshly diluted enzyme (in “reaction buffer”) per well, then 0.5 ul of diluted drug or DMSO mixing. Then 10 ul of substrate is added to start the reaction. The mixture is incubated 30-60 minutes, room temp, then stopped with 20 ul of stop/detector mix. The substrate solution, is 40 μM PIP2 and 50 uM ATP in reaction buffer. Addition of 10 ul of substrate to each well starts the reaction. This is 20 uM PIP2, 25 uM ATP final in reaction.
Stop/detector mix: 10 nM TAMRA detector, 40 nM GST-GRP in STOP/detection buffer. To stop reaction: add 20 ul Stop/detector mix per well and mix well. Wait 90-110 minutes before reading plate. Plates are read on Perkin-Elmer Envision plate readers with filters for Tamra. Keep Red probe solutions dark. This procedure is adapted from Echelon Biosciences Inc procedure for their PI3-Kinase fluorescence polarization activity Assay kit Product number K-1100.

The test system of assay [1] is acute lymphoblastic leukemia xenograft. Conditions: NOS/SCID xenograft mouse model of acute lymphoblastic leukemia; Teachey et al, Blood 2006; cited from earlier work.

Sequence of PI3 Kinase α (P42336 whole entry): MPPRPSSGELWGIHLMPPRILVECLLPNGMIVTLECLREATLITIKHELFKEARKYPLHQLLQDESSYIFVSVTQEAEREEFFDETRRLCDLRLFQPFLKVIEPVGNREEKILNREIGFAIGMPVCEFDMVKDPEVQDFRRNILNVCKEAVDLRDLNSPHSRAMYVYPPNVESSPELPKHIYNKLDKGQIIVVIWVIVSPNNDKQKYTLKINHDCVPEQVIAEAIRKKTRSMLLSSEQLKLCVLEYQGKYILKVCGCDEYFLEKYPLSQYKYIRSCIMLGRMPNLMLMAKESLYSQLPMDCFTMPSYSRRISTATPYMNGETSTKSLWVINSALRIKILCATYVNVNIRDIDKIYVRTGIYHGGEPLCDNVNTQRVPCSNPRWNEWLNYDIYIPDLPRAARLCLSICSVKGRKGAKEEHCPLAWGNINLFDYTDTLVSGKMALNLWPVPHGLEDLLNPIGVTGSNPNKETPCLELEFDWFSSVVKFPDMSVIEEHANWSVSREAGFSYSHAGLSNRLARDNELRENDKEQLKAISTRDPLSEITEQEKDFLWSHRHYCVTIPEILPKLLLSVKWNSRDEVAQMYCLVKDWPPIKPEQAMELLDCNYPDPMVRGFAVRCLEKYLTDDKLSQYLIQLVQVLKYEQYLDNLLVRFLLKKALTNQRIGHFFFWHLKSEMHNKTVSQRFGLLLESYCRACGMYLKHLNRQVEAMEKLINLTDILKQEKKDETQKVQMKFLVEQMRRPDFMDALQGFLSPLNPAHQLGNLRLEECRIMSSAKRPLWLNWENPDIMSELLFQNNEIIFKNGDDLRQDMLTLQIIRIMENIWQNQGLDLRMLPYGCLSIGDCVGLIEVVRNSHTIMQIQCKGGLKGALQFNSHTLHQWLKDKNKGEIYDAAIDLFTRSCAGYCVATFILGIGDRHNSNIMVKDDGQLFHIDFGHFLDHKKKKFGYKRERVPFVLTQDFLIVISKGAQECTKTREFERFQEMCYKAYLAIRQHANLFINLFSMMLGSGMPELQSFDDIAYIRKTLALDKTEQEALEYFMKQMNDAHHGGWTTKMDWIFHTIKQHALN
Sequence of PI3 Kinase α (P27986 whole entry partner): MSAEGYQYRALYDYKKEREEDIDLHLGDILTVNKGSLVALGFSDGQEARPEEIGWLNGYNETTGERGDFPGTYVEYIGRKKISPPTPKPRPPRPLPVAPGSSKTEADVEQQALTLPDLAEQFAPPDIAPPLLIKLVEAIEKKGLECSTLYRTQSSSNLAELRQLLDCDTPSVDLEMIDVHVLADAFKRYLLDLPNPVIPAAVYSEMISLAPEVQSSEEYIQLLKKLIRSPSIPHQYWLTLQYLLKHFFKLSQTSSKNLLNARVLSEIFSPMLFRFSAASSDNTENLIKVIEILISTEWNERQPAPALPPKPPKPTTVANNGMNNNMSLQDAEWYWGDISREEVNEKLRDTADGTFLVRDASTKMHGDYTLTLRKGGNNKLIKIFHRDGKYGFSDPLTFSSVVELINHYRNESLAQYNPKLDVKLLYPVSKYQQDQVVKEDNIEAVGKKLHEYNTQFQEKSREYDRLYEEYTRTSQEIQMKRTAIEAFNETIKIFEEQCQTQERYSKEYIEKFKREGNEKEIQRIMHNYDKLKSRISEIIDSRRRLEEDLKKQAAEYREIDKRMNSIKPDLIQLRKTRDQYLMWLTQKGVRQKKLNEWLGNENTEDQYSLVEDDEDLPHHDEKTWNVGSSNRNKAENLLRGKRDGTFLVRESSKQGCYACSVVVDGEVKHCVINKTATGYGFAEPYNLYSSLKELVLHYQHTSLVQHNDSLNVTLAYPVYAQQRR
Sequence of PI3 Kinase γ (P48736 whole entry): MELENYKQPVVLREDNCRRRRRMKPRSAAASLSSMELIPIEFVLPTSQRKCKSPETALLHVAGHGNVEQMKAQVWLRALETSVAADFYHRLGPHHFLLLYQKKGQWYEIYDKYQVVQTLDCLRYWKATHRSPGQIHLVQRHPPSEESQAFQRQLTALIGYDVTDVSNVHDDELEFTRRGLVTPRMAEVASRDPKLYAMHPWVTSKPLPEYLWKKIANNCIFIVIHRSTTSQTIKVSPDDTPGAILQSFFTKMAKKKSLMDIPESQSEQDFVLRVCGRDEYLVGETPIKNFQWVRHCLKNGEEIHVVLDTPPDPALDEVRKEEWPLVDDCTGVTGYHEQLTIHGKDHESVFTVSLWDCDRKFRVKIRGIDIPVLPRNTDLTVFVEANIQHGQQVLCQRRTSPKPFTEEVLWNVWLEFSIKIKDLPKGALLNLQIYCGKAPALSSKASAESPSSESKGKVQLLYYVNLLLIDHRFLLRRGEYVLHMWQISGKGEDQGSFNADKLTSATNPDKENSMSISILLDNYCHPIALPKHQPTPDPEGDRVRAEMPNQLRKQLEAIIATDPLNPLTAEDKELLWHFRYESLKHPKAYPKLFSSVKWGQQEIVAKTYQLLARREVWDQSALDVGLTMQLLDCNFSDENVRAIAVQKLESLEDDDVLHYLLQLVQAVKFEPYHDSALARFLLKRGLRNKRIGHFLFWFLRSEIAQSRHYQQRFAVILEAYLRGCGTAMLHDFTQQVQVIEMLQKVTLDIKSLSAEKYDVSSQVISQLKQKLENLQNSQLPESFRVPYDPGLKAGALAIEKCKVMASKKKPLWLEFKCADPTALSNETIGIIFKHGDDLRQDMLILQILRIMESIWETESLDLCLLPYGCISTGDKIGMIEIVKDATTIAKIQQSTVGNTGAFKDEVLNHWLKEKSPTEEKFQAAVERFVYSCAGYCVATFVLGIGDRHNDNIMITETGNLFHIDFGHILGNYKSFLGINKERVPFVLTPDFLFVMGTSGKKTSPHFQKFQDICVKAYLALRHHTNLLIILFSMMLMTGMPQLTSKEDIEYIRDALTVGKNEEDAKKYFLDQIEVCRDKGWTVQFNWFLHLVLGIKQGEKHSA

`Oc1cccc(-c2nc(N3CCOCC3)c3[nH]cc(C4CCN(Cc5ncc[nH]5)CC4)c3n2)c1` [Example 28, 3-{7-[1-(1H-imidazol-2-ylmethyl)piperidin-4-yl]-4-morpholin-4-yl-5H-pyrrolo[3,2-d]pyrimidin-2-yl}phenol]: the IC50 worked out at 2.5 µM against human TOR, 0.358 µM at PI3 Kinase α and 0.983 µM on PI3 Kinase γ.
On to `CC(C)CN1CCC(c2c[nH]c3c(N4CCOCC4)nc(-c4cccc(O)c4)nc23)CC1` [Example 29, 3-[7-(1-isobutylpiperidin-4-yl)-4-morpholin-4-yl-5H-pyrrolo[3,2-d]pyrimidin-2-yl]phenol], for which the IC50 against human TOR was determined as 3.15 µM; on PI3 Kinase α, 0.498 µM; against PI3 Kinase γ, 1.9 µM.
Regarding `CN1CCC(c2c[nH]c3c(N4CCOCC4)nc(-c4cccc(O)c4)nc23)CC1` [Example 30, 3-[7-(1-methylpiperidin-4-yl)-4-morpholin-4-yl-5H-pyrrolo[3,2-d]pyrimidin-2-yl]phenol], the IC50 against human TOR amounted to 3.75 µM; on PI3 Kinase α it was 0.484 µM; against PI3 Kinase γ, 0.828 µM.
For `Oc1cccc(-c2nc(N3CCOCC3)c3[nH]cc(C4CCN(C5CCCCC5)CC4)c3n2)c1` [Example 31, 3-[7-(1-cyclohexylpiperidin-4-yl)-4-morpholin-4-yl-5H-pyrrolo[3,2-d]pyrimidin-2-yl]phenol], the results for the IC50 against human TOR, on PI3 Kinase α and against PI3 Kinase γ were 0.37 µM, 0.25 µM and 2.49 µM, respectively.
In the case of `Oc1cccc(-c2nc(N3CCOCC3)c3[nH]cc(C4CCN(Cc5ccccc5F)CC4)c3n2)c1` [Example 32, 3-{7-[1-(2-fluorobenzyl)piperidin-4-yl]-4-morpholin-4-yl-5H-pyrrolo[3,2-d]pyrimidin-2-yl}phenol], the IC50 is 0.33 µM against human TOR, 0.166 µM on PI3 Kinase α and 1.92 µM on PI3 Kinase γ.
With `Oc1cccc(-c2nc(N3CCOCC3)c3[nH]cc(C4CCN(Cc5ccc[nH]5)CC4)c3n2)c1` [Example 33, 3-{4-morpholin-4-yl-7-[1-(1H-pyrrol-2-ylmethyl)piperidin-4-yl]-5H-pyrrolo[3,2-d]pyrimidin-2-yl}phenol], the IC50 against human TOR worked out at 0.96 µM; on PI3 Kinase α it was 0.111 µM; against PI3 Kinase γ, 0.792 µM.
For `Oc1cccc(-c2nc(N3CCOCC3)c3[nH]cc(C4CCN(Cc5ccc(F)cc5Cl)CC4)c3n2)c1` [Example 34, 3-{7-[1-(2-chloro-4-fluorobenzyl)piperidin-4-yl]-4-morpholin-4-yl-5H-pyrrolo[3,2-d]pyrimidin-2-yl}phenol], the IC50 against human TOR was found to be 0.46 µM; against PI3 Kinase α, 0.12 µM; against PI3 Kinase γ, 1.37 µM.
Consider `CC(C)(C)OC(=O)NCCN1CCC(c2c[nH]c3c(N4CCOCC4)nc(-c4cccc(O)c4)nc23)CC1` [Example 36, tert-Butyl (2-{4-[2-(3-hydroxyphenyl)-4-morpholin-4-yl-5H-pyrrolo[3,2-d]pyrimidin-7-yl]piperidin-1-yl}ethyl)carbamate], for which the IC50 against human TOR is 0.58 µM; on PI3 Kinase α it was 0.222 µM; at PI3 Kinase γ, 1.73 µM.
As to `Oc1cccc(-c2nc(N3CCOCC3)c3[nH]cc(C4CCN(Cc5ccccn5)CC4)c3n2)c1` [Example 38, 3-{4-morpholin-4-yl-7-[1-(pyridin-2-ylmethyl)piperidin-4-yl]-5H-pyrrolo[3,2-d]pyrimidin-2-yl}phenol], the IC50 against human TOR is 0.605 µM; against PI3 Kinase α, 0.14 µM; on PI3 Kinase γ, 0.611 µM.
`Oc1cccc(-c2nc(N3CCOCC3)c3[nH]cc(C4CCN(Cc5ccc(F)nc5)CC4)c3n2)c1` [Example 39, 3-(7-{1-[(6-fluoropyridin-3-yl)methyl]piperidin-4-yl}-4-morpholin-4-yl-5H-pyrrolo[3,2-d]pyrimidin-2-yl)phenol]: the IC50 amounted to 1.26 µM against human TOR, 0.069 µM at PI3 Kinase α and 0.132 µM at PI3 Kinase γ.
Take `CN(C)CCNC(=O)Nc1cccc(-c2nc(N3CCOCC3)c3[nH]ccc3n2)c1` [Example 40, 1-[2-(dimethylamino)ethyl]-3-[3-(4-morpholin-4-yl-5H-pyrrolo[3,2-d]pyrimidin-2-yl)phenyl]urea]: the IC50 at human TOR was > 4 µM; against PI3 Kinase α, 4.68 µM; against PI3 Kinase γ it was 9.5 µM.
Turning to `O=C(NCCCO)Nc1cccc(-c2nc(N3CCOCC3)c3[nH]ccc3n2)c1` [Example 41, 1-(3-hydroxypropyl)-3-[3-(4-morpholin-4-yl-5H-pyrrolo[3,2-d]pyrimidin-2-yl)phenyl]urea], the IC50 was > 4 µM on human TOR, 6.22 µM at PI3 Kinase α and > 10 µM on PI3 Kinase γ.
The like results for `O=C(NCCCn1ccnc1)Nc1cccc(-c2nc(N3CCOCC3)c3[nH]ccc3n2)c1` [Example 42, 1-[3-(1H-imidazol-1-yl)propyl]-3-[3-(4-morpholin-4-yl-5H-pyrrolo[3,2-d]pyrimidin-2-yl)phenyl]urea] were, in that order, > 4 µM, 8.94 µM and > 10 µM.
Consider `O=C(NCc1ccco1)Nc1cccc(-c2nc(N3CCOCC3)c3[nH]ccc3n2)c1` [Example 43, 1-(2-furylmethyl)-3-[3-(4-morpholin-4-yl-5H-pyrrolo[3,2-d]pyrimidin-2-yl)phenyl]urea], for which the IC50 against human TOR was > 4 µM; against PI3 Kinase α it was > 10 µM; against PI3 Kinase γ, > 10 µM.
With `O=C(NCc1cccnc1)Nc1cccc(-c2nc(N3CCOCC3)c3[nH]ccc3n2)c1` [Example 44, 1-[3-(4-morpholin-4-yl-5H-pyrrolo[3,2-d]pyrimidin-2-yl)phenyl]-3-(pyridin-3-ylmethyl)urea], the IC50 was > 4 µM against human TOR, > 10 µM against PI3 Kinase α and > 10 µM on PI3 Kinase γ.
Turning to `COC(=O)Cn1ccc2nc(-c3cccc(CO)c3)nc(N3CCOCC3)c21` [Example 46, Methyl {2-[3-(hydroxymethyl)phenyl]-4-morpholin-4-yl-5H-pyrrolo[3,2-d]pyrimidin-5-yl}acetate], the results for the IC50 against human TOR, on PI3 Kinase α and against PI3 Kinase γ were > 4 µM, 2.4 µM and 2.68 µM, respectively.
The like results for `O=C1COCCN1c1nc(-c2cccc(O)c2)nc2cc[nH]c12` [Example 48, 4-[2-(3-hydroxyphenyl)-5H-pyrrolo[3,2-d]pyrimidin-4-yl]morpholin-3-one] were, in that order, 0.505 µM, 1.18 µM and 2 µM.
Take `CO[C@H]1C[C@@H]2CC[C@@H](C)[C@@](O)(O2)C(=O)C(=O)N2CCCC[C@H]2C(=O)O[C@H]([C@H](C)C[C@@H]2CC[C@@H](OC(=O)C(C)(CO)CO)[C@H](OC)C2)CC(=O)[C@H](C)/C=C(\C)[C@@H](O)[C@@H](OC)C(=O)[C@H](C)C[C@H](C)/C=C/C=C/C=C/1C` [Torisel]: the “activity in xenograft model” value in assay [1] is reported as “active”.
